In ChEMBL document CHEMBL4699592, “Nature-Inspired (di)Azine-Bridged Bisindole Alkaloids with Potent Antibacterial In Vitro and In Vivo Efficacy against Methicillin-Resistant Staphylococcus aureus” (J Med Chem, 2020):
In brackets after ≈: the same amount, converted by molar mass. Activity calls are given as the source filed them. The calls are words filed in the database; no cut-off is given here.

How the values were obtained:
[1] = system: THP-1; assay: Cytotoxicity against human THP-1 cells assessed as reduction in cell viability at >=12.5 uM measured after 48 hrs by resazurin dye based fluorescence assay; details: thp-1, 48 h
[2] = system: Staphylococcus aureus; assay: Antibacterial activity against methicillin-resistant Staphylococcus aureus USA300 LAC at 0.15 to 25 uM incubated for 24 hrs under low glucose medium by resazurin dye based fluorescence assay; type: functional, organism-based; details: dose microM 0.15-25, time 24.0 hrs
[3] = system: Mycobacterium tuberculosis; assay: Antibacterial activity against Mycobacterium tuberculosis H37Rv at 0.78 to 100 uM after 5 days by resazurin dye based fluorescence assay; type: functional, organism-based; details: dose microM 0.78-100, time 5.0 day
[4] = system: Staphylococcus aureus; assay: Antibacterial activity against methicillin susceptible Staphylococcus aureus ATCC 25923 at 0.78 to 100 uM after 24 hrs by broth microdilution method; type: functional, organism-based; details: dose microM 0.78-100, time 24.0 hrs
[5] = system: Acinetobacter baumannii; assay: Synergistic antibacterial activity against Acinetobacter baumannii ATCC BAA-1605 assessed as FIC after 24 hrs in presence of colistin by checkerboard assay relative to test compound MIC; type: functional
[6] = system: Escherichia coli; assay: Synergistic antimicrobial activity against Escherichia coli ATCC BAA 2469 assessed as FIC after 24 hrs in presence of colistin by checkerboard assay relative to colistin; type: functional
[7] = system: Enterococcus faecium; assay: Antibacterial activity against vancomycin-resistant Enterococcus faecium ATCC 700221 at 0.78 to 100 uM after 24 hrs by broth microdilution method; type: functional, organism-based; details: dose microM 0.78-100, time 24.0 hrs
[8] = system: Staphylococcus aureus; assay: Antibacterial activity against vancomycin-sensitive Staphylococcus aureus T144 infected in Balb/c mouse assessed as increase in wound healing at 5 mg/kg applied topically measured daily for 12 days by microscopic analysis; type: functional, organism-based; details: time 12.0 day
[9] = system: Acinetobacter baumannii; assay: Synergistic antibacterial activity against Acinetobacter baumannii ATCC BAA-1605 assessed as FICI after 24 hrs in presence of colistin by checkerboard assay; type: functional
[10] = system: Acinetobacter baumannii; assay: Synergistic antibacterial activity against Acinetobacter baumannii ATCC BAA-1605 assessed as FIC after 24 hrs in presence of colistin by checkerboard assay relative to colistin; type: functional
[11] = system: Escherichia coli; assay: Antimicrobial activity against Escherichia coli ATCC BAA 2469 after 24 hrs by broth microdilution assay; type: functional
[12] = target: Pyruvate kinase PKM (Oryctolagus cuniculus) (UniProt P11974); assay: Inhibition of rabbit muscle pyruvate kinase up to 12.5 uM using phosphoenolpyruvate as substrate measured for 5 mins by LDH-coupled assay; details: dose microM <=12.5, time 5.0 min
[13] = system: Staphylococcus aureus; assay: Antibacterial activity against […] Staphylococcus aureus ATCC 700699 assessed as ratio of MIC before and after 38 passages by broth microdilution method; type: functional
[14] = system: HEK293; assay: Cytotoxicity against HEK293 cells assessed as reduction in cell viability at >12.5 uM measured after 48 hrs by resazurin dye based fluorescence assay; details: human, hek293, 48 h
[15] = system: HepG2; assay: Cytotoxicity against human HepG2 cells assessed as reduction in cell viability at >12.5 uM measured after 48 hrs by resazurin dye based fluorescence assay; details: hepg2, 48 h
[16] = system: Enterococcus faecalis; assay: Antibacterial activity against Enterococcus faecalis ATCC 29212 at 0.78 to 100 uM after 24 hrs by broth microdilution method; type: functional, organism-based; details: dose microM 0.78-100, time 24.0 hrs
[17] = system: Escherichia coli; assay: Synergistic antimicrobial activity against Escherichia coli ATCC BAA 2469 assessed as FIC after 24 hrs in presence of colistin by checkerboard assay relative to test compound MIC; type: functional
[18] = system: Staphylococcus aureus; assay: Antibacterial activity against methicillin-resistant pyruvate kinase deficient Staphylococcus aureus USA300 LAC at 0.15 to 25 uM incubated for 24 hrs under low pyruvate containing medium by resazurin dye based fluorescence assay; type: functional, organism-based; details: dose microM 0.15-25, time 24.0 hrs
[19] = Solubility of compound in pH 7.7 DMSO:PBS solution; type: physicochemical; details: buffer
[20] = system: Enterococcus faecium; assay: Antibacterial activity against vancomycin-resistant Enterococcus faecium ATCC 35667 at 0.78 to 100 uM after 24 hrs by broth microdilution method; type: functional, organism-based; details: dose microM 0.78-100, time 24.0 hrs
[21] = system: Staphylococcus aureus; assay: Antibacterial activity against […] Staphylococcus aureus ATCC 700699 after 24 hrs by broth microdilution method; type: functional
[22] = system: Escherichia coli; assay: Synergistic antimicrobial activity against Escherichia coli ATCC BAA 2469 assessed as FICI after 24 hrs in presence of colistin by checkerboard assay; type: functional
[23] = system: Staphylococcus aureus; assay: Bactericidal activity against […] Staphylococcus aureus ATCC 700699 assessed as reduction in bacterial viability at 5 fold MIC incubated for 6 hrs by time kill assay relative to control; type: functional
[24] = system: Enterococcus faecalis; assay: Antibacterial activity against Enterococcus faecalis ATCC 51299 at 0.78 to 100 uM after 24 hrs by broth microdilution method; type: functional, organism-based; details: dose microM 0.78-100, time 24.0 hrs
[25] = system: Acinetobacter baumannii; assay: Antibacterial activity against Acinetobacter baumannii ATCC BAA-1605 at 0.78 to 100 uM after 24 hrs by broth microdilution method; type: functional, organism-based; details: dose microM 0.78-100, time 24.0 hrs
[26] = system: Pseudomonas aeruginosa; assay: Synergistic antibacterial activity against Pseudomonas aeruginosa ATCC 27853 assessed as FIC after 24 hrs in presence of colistin by checkerboard assay relative to test compound MIC; type: functional
[27] = system: Escherichia coli; assay: Antimicrobial activity against Escherichia coli ATCC BAA 2469 after 24 hrs in presence of colistin by checkerboard assay relative to test compound MIC; type: functional
[28] = system: Pseudomonas aeruginosa; assay: Synergistic antibacterial activity against Pseudomonas aeruginosa ATCC 27853 assessed as FICI after 24 hrs in presence of colistin by checkerboard assay; type: functional
[29] = Solubility of compound in pH 7.7 PBS buffer; type: physicochemical
[30] = Selectivity index, ratio of IC50 for cytotoxicity against human THP-1 cells to MIC90 for antibacterial activity against […] Staphylococcus aureus ATCC 700699; type: toxicity, cell-based; details: read-out: Selectivity Index
[31] = system: Acinetobacter baumannii; assay: Antibacterial activity against Acinetobacter baumannii ATCC BAA-1605 after 24 hrs by broth microdilution method; type: functional
[32] = system: Staphylococcus aureus; assay: Bactericidal activity against […] Staphylococcus aureus ATCC 700699 assessed as colony forming units at 5 fold MIC measured after 24 hrs by time kill assay; type: functional
[33] = system: Staphylococcus aureus; assay: Antibacterial activity against methicillin-resistant Staphylococcus aureus USA300 LAC at 0.15 to 25 uM incubated for 24 hrs under low pyruvate containing medium by resazurin dye based fluorescence assay; type: functional, organism-based; details: dose microM 0.15-25, time 24.0 hrs
[34] = system: Pseudomonas aeruginosa; assay: Antibacterial activity against Pseudomonas aeruginosa ATCC 27853 measured after 24 hrs by broth microdilution method; type: functional
[35] = system: Klebsiella pneumoniae; assay: Synergistic antibacterial activity against Klebsiella pneumoniae ATCC 700603 assessed as FIC after 24 hrs in presence of colistin by checkerboard assay relative to test compound MIC; type: functional
[36] = Cytotoxicity against human CLS-54 cells assessed as reduction in cell viability at >12.5 uM measured after 48 hrs by resazurin dye based fluorescence assay; details: cls-54, 48 h
[37] = system: Staphylococcus aureus; assay: Inhibition of Staphylococcus aureus ATCC 700699 N-terminal His6-tagged pyruvate kinase expressed in Escherichia coli NiCo21(DE3) at 12.5 uM using phosphoenolpyruvate as substrate measured for 5 mins by LDH-coupled assay
[38] = system: Erythrocyte; assay: Hemolytic activity against sheep erythrocytes up to 100 uM measured after 1 hr; type: ADME, cell-based, Ovis aries
[39] = Selectivity index, ratio of IC50 for cytotoxicity against human MRC5 cells to MIC90 for antibacterial activity against […] Staphylococcus aureus ATCC 700699; type: toxicity, cell-based; details: read-out: Selectivity Index
[40] = system: Klebsiella pneumoniae; assay: Synergistic antibacterial activity against Klebsiella pneumoniae ATCC 700603 assessed as FICI after 24 hrs in presence of colistin by checkerboard assay; type: functional
[41] = system: Klebsiella pneumoniae; assay: Antibacterial activity against Klebsiella pneumoniae ATCC 700603 after 24 hrs in presence of colistin by checkerboard assay relative to test compound MIC; type: functional
[42] = system: MRC5; assay: Cytotoxicity against human MRC5 cells assessed as reduction in cell viability at >=12.5 uM measured after 48 hrs by resazurin dye based fluorescence assay; details: mrc5, 48 h
[43] = system: Staphylococcus aureus; assay: Antibacterial activity against vancomycin-sensitive Staphylococcus aureus T144 infected in Balb/c mouse peritonitis-sepsis model assessed as increase in survival at 5 mg/kg, ip measured for 48 hrs; type: functional, organism-based
[44] = system: Klebsiella pneumoniae; assay: Antibacterial activity against Klebsiella pneumoniae ATCC 700603 after 24 hrs by broth microdilution method; type: functional
[45] = system: Staphylococcus aureus; assay: Antibacterial activity against vancomycin-sensitive Staphylococcus aureus T144 infected in Balb/c mouse assessed as reduction in bacterial burden at 5 mg/kg applied topically measured after 12 days by colony counting method; type: functional, organism-based; details: time 12.0 day
[46] = system: Pseudomonas aeruginosa; assay: Synergistic antibacterial activity against Pseudomonas aeruginosa ATCC 27853 assessed as FIC after 24 hrs in presence of colistin by checkerboard assay relative to colistin; type: functional
[47] = system: Klebsiella pneumoniae; assay: Synergistic antibacterial activity against Klebsiella pneumoniae ATCC 700603 assessed as FIC after 24 hrs in presence of colistin by checkerboard assay relative to colistin; type: functional
[48] = system: Staphylococcus aureus; assay: Bactericidal activity against […] Staphylococcus aureus ATCC 700699 assessed as colony forming unit at 5 fold MIC incubated for 6 hrs followed by compound washout and subsequent compound addition by time kill assay; type: functional
[49] = Stability of compound in pH 7.7 DMSO:PBS solution at 0.19 uM measured after 6 hrs; type: physicochemical; details: buffer, pH 7.7, 6 h
[50] = system: Staphylococcus aureus; assay: Antibacterial activity against vancomycin-sensitive Staphylococcus aureus T144 infected in Balb/c mouse assessed as reduction in bacterial burden at 20 mg/kg applied topically measured after 12 days by colony counting method; type: functional, organism-based; details: time 12.0 day
[51] = system: Staphylococcus aureus; assay: Antibacterial activity against vancomycin-sensitive Staphylococcus aureus T144 infected in Balb/c mouse peritonitis-sepsis model assessed as increase in survival at 20 mg/kg, ip measured for 48 hrs; type: functional, organism-based
[52] = system: Staphylococcus aureus; assay: Antibacterial activity against vancomycin-sensitive Staphylococcus aureus T144 infected in Balb/c mouse assessed as increase in wound healing at 20 mg/kg applied topically measured daily for 12 days by microscopic analysis; type: functional, organism-based; details: time 12.0 day
[53] = system: Staphylococcus aureus; assay: Antibacterial activity against methicillin susceptible Staphylococcus aureus ATCC 25923 after 24 hrs by broth microdilution method; type: functional

Pyruvate kinase PKM (Oryctolagus cuniculus), sequence (P11974 whole entry): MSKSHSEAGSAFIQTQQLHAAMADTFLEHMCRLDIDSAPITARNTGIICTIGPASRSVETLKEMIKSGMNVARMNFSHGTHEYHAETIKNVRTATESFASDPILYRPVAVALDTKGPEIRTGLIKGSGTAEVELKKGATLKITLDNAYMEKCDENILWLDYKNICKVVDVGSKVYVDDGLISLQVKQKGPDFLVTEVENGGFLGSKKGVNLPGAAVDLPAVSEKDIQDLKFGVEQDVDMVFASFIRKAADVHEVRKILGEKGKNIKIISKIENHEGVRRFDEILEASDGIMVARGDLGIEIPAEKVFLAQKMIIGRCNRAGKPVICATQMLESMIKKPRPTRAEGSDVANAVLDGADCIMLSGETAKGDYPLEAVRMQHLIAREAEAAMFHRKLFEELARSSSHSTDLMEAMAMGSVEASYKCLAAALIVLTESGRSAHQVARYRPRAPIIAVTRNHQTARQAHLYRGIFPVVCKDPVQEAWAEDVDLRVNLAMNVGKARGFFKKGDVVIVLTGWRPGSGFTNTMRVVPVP

Clc1ccc2[nH]cc(-c3cnc(-c4c[nH]c5ccc(Cl)cc45)nc3)c2c1
Activity [1]: Toxic
Activity [2]: Active
Activity [3]: Active
Activity [4]: Active
FIC [5]: <=0.0625
FIC [6]: 0.064
Activity [7]: Active
Activity [8]: Active
fractional inhibitory concentration index (FICI) [9]: <=0.3125
FIC [10]: 0.25
MIC [11]: > 100 µM
inhibition [12]: inactive
Ratio [13]: 2
Activity [14]: Toxic
Activity [15]: Toxic
Activity [16]: Active
FIC [17]: <=0.0313
Activity [18]: Active
solubility [19]: Insoluble
Activity [20]: Active
MIC90 [21]: 0.39 µM (≈ 0.148 µg/mL)
fractional inhibitory concentration index (FICI) [22]: <=0.0953
fold change (FC) [23]: 10000
Activity [24]: Active
Activity [25]: Active
FIC [26]: <=0.0625
Ratio [27]: 32
fractional inhibitory concentration index (FICI) [28]: <=1.0625
solubility [29]: Insoluble
selectivity ratio [30]: 32
MIC [31]: > 100 µM
Activity [32]: <10 CFU/ml
Activity [33]: Active
MIC [34]: > 100 µM
FIC [35]: <=0.125
Activity [36]: Toxic
inhibition [37]: inactive
Activity [38]: Non-Toxic
selectivity ratio [39]: 32
fractional inhibitory concentration index (FICI) [40]: <=0.25
Ratio [41]: 8
Activity [42]: Toxic
Activity [43]: Active
MIC [44]: > 100 µM
Activity [45]: Active
FIC [46]: 1
FIC [47]: 0.125

Clc1ccc2[nH]cc(-c3cnc(-c4c[nH]c5ccc(Cl)cc45)cn3)c2c1
Activity [1]: Toxic
Activity [3]: inactive
MIC90 [21]: 0.39 µM (≈ 0.148 µg/mL)
fold change (FC) [23]: 100
Activity [25]: inactive
solubility [29]: Insoluble
Activity [48]: 100 CFU/ml
selectivity ratio [30]: 32
Activity [32]: 100 CFU/ml
selectivity ratio [39]: 32
Stabilty [49]: Stable
Activity [42]: Toxic

CN[C@H](CC(C)C)C(=O)N[C@H]1C(=O)N[C@@H](CC(N)=O)C(=O)N[C@H]2C(=O)N[C@H]3C(=O)N[C@H](C(=O)N[C@H](C(=O)O)c4cc(O)cc(O)c4-c4cc3ccc4O)[C@H](O)c3ccc(c(Cl)c3)Oc3cc2cc(c3O[C@@H]2O[C@H](CO)[C@@H](O)[C@H](O)[C@H]2O[C@H]2C[C@](C)(N)[C@H](O)[C@H](C)O2)Oc2ccc(cc2Cl)[C@H]1O
Activity [50]: Active
Activity [51]: Active
Activity [52]: Active

Brc1cc2[nH]cc(-c3cnc(-c4c[nH]c5cc(Br)c(Br)cc45)cn3)c2cc1Br
Activity [3]: inactive
MIC90 [21]: 1.56 µM (≈ 0.976 µg/mL)
Activity [25]: inactive
MIC [53]: 1.56 µM (≈ 0.976 µg/mL)
